Measurements as given in patent publication US12612410B2 (CHILDREN'S HOSPITAL MEDICAL CENTER, priority 2020, dated 2026).

Assays:
MOLM14 (D835Y) cells = assay: Combination drug screening with Venetoclax in MOLM14 (D835Y) cells; type: cell-based; set-up: key to Sum Excess HSA: negative = synergy, positive = antagonism with Venetoclax; relative score; settings: 10 × 10 dataset; for Sum Excess HSA: combination with Venetoclax, 48 hours
Description: Combination drug therapy has the potential to produce enhanced effects with lower side effects not obtained using either agent alone, or beyond the additive effect of the different concentrations of the two different agents. To determine whether enhanced effects are observed in different drug combinations in the setting of FLT3 resistance, combination drug screening was performed as previously described (Mathews-Griner, L. A. et al., Proc. Nat. Acad. Sci., 2014, 111:2439-2454; Lin, G. L. et al., Sci. Trans. Med., 2019, 11:eaaw0064). Briefly, 10 nL of compounds were acoustically dispensed into 1536-well white polystyrene tissue culture-treated plates with an Echo 550 acoustic liquid handler (Labcyte). MOLM14 (D835Y) Cells were then added to compound-containing plates at a density of 500-cells/well in 5 μL of medium. A 10-point custom concentration range was used for all listed drugs. Plates were incubated for 48 hours at standard incubator conditions covered by a stainless steel gasketed lid to prevent evaporation. 48 h post compound addition, 3 μL of Cell Titer Glo (Promega) were added to each well and plates were incubated at room temperature for 15 minutes with the stainless-steel lid in place. Luminescence readings were taken using a Viewlux imager (PerkinElmer) with a 2 second exposure time per plate.
The sum excess HSA scores for Compounds 25, 31, 35, 50, 51, 80, 82, 97, 118, and 119 in Table 28 are used herein to quantitate drug interactions for enhanced pharmacological effects in the MOLM14 (D835Y) cell line. This is a FLT3-ITD cell line that harbors a FLT3 resistance mutation in the tyrosine kinase domain at position 835 (D835Y). More information on excess HSA scores can be found in Vlot, Anna H. C. et al., Drug Discovery Today, 2019, 24(12):2286-2298. […] However, different methodologies may yield different numerical scores, and different definitions of what constitutes a deviation from mere additivity vs true drug synergy. Table 28 summarizes the combination results of Compounds 25, 31, 35, 50, 51, 80, 82, 97, 118, and 119 with Venetoclax. A large negative sum excess HSA score indicates profound synergism with Venetoclax, whereas a positive excess HSA score indicates antagonism with Venetoclax in certain drug combinations.
The degree to which combination therapy has to potential to produce enhanced effects with lower side effects not obtained using either agent alone, or beyond the additive effect of the different concentrations of the two different agents depends on the nature of the drugs used in the combination, and the specific doses/concentrations at which they are ultimately used in the therapeutic regimen. A negative excess sum HSA score illustrates that the drug combination is better than either drug alone (at the concentrations being studied), and the sum excess HSA score is a measurement of the overall deviation from additivity that is observed across the entire matrix of concentrations studied. […] However, the utility in certain drug combinations vs others should not be distinguished based on cutoffs between excess sum HSA scores, because the score itself is only a relative indicator that is completely dependent on experimental design and is not an absolute number. Furthermore, the concept of what constitutes clinically meaningful drug synergy is something that is still being debated, not only between pharmacologists and physicians, but amongst pharmacologists themselves. The data in Table 28 illustrate that the nature of the combined effect is dependent on the characteristics of each individual compound, as not every compound produced a synergistic interaction in combination with Venetoclax.

FLT3 Autoinh. = molecular target: T1, FLT3 Autoinh. (Homo sapiens, UniProt P36888); assay: DiscoverX KINOMEscan competition binding, FLT3 Autoinh.
T1 construct: host or cells: E. coli BL21-derived host (T7 phage) or HEK-293
T1 sequence (P36888 564-993 limits assumed): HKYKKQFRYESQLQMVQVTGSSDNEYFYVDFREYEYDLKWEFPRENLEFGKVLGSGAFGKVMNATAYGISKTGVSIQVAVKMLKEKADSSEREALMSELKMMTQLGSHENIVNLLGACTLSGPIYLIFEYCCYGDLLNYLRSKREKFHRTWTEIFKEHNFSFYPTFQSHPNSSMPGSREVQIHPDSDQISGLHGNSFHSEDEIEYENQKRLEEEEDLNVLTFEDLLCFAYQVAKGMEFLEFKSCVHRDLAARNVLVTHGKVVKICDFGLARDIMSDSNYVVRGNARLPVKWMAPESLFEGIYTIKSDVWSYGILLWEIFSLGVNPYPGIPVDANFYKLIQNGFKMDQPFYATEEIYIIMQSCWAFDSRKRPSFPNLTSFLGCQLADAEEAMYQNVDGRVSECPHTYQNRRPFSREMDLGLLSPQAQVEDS
Description: Kinase binding data were obtained for various exemplary compounds prepared according to Examples 1-24 using the DiscoverX KINOMVIEscan® active site-directed competition binding site-directed assay protocol described below. […] As a result, the data report thermodynamic interaction affinities (Kd values), rather than IC50 values that are dependent on ATP concentrations. The assay uses a DNA-tagged version of the protein kinase, and an immobilized ligand bound to a solid support. Compounds that directly or indirectly prevent kinase binding to the immobilized ligand reduce the amount of kinase captured on the solid support, which is detected using an ultra-sensitive qPCR method. Affinity constants reported from the assay have been reported to be independent of the immobilized ligand used that is coupled to the solid support (See supplemental information in Fabian, M. A. et. al., (2005) Nat. Biotechnol. 23, 329-336; Wodicka, L. M. et. al., (2010) Chem. Biol. 17, 1241-1249.)
Kinase-tagged T7 phage strains were prepared in an E. coli host derived from the BL21 strain. E. coli were grown to log-phase and infected with T7 phage and incubated with shaking at 32° C. until lysis. The lysates were centrifuged and filtered to remove cell debris. The remaining kinases were produced in HEK-293 cells and subsequently tagged with DNA for qPCR detection. Streptavidin-coated magnetic beads were treated with biotinylated small molecule ligands for 30 minutes at room temperature to generate affinity resins for kinase assays. The liganded beads were blocked with excess biotin and washed with blocking buffer (SeaBlock (Pierce), 1% BSA, 0.05% Tween 20, 1 mM DTT) to remove unbound ligand and to reduce non-specific binding. Binding reactions were assembled by combining kinases, liganded affinity beads, and test compounds in 1× binding buffer (20% SeaBlock, 0.17×PBS, 0.05% Tween 20, 6 mM DTT). Test compounds were prepared as 111× stocks in 100% DMSO. Kds were determined using an 11-point 3-fold compound dilution series with three DMSO control points. All compounds for Kd measurements are distributed by acoustic transfer (non-contact dispensing) in 100% DMSO. The compounds were then diluted directly into the assays such that the final concentration of DMSO was 0.9%. All reactions were performed in polypropylene 384-well plates. Each was a final volume of 0.02 mL. The assay plates were incubated at room temperature with shaking for 1 hour and the affinity beads were washed with wash buffer (1×PBS, 0.05% Tween 20). The beads were then re-suspended in elution buffer (1×PBS, 0.05% Tween 20, 0.5 μM nonbiotinylated affinity ligand) and incubated at room temperature with shaking for 30 minutes. The kinase concentration in the eluates was measured by qPCR.
Binding constants (Kds) were calculated with a standard dose-response curve using the Hill equation. The Hill Slope was set to −1. Curves were fitted using a non-linear least square fit with the Levenberg-Marquardt algorithm.

Row | SMILES | Sum Excess HSA (MOLM14 (D835Y) cells) | Kd (FLT3 Autoinh.) | Interaction with Venetoclax (MOLM14 (D835Y) cells)
1 | CC(O)(c1cn2c(-c3cccc(N[C@H]4CNCC[C@@H]4F)n3)cnc2cn1)C(F)(F)F (single isomer, unassigned) [Compound 80] | −261.7 |  | 
2 | CC(O)(c1cn2c(-c3cccc(N[C@H]4CNCC[C@@H]4F)n3)cnc2cn1)C(F)(F)F (single isomer, unassigned) [Compound 82] | −155.8 |  | 
3 | CC1(c2cn3c(-c4cccc(N[C@H]5CNC[C@@H]5F)n4)cnc3cn2)CC1 [Compound 1, N-((3S,4S)-4-fluoropyrrolidin-3-yl)-6-(6-(1-methylcyclopropyl)imidazo[1,2-a]pyrazin-3-yl)pyridin-2-amine] |  | 1 nM | 
4 | CC1(c2cn3c(-c4cccc(N[C@@H]5CCNC5)n4)cnc3cn2)CC1 [Compound 3, (R)-6-(6-(1-methylcyclopropyl)imidazo[1,2-a]pyrazin-3-yl)-N-(pyrrolidin-3-yl)pyridin-2-amine] |  | 1.4 nM | 
5 | CC1(c2cn3c(-c4cccc(N[C@H]5CNCC56CC6)n4)cnc3cn2)CC1 [Compound 5, (R)-N-(6-(6-(1-methylcyclopropyl)imidazo[1,2-a]pyrazin-3-yl)pyridin-2-yl)-5-azaspiro[2.4]heptan-7-amine] |  | 0.88 nM | 
6 | FC(F)(F)C1(c2cn3c(-c4cccc(N[C@@H]5CCNC5)n4)cnc3cn2)CC1 [Compound 10, (R)-N-(pyrrolidin-3-yl)-6-(6-(1-(trifluoromethyl)cyclopropyl)imidazo[1,2-a]pyrazin-3-yl)pyridin-2-amine] |  | 4.2 nM | 
7 | FC(F)c1cn2c(-c3cccc(N[C@H]4CNC[C@@H]4F)n3)cnc2cn1 [Compound 16, 6-(6-(difluoromethyl)imidazo[1,2-a]pyrazin-3-yl)-N-((3S,4S)-4-fluoropyrrolidin-3-yl)pyridin-2-amine] |  | 3 nM | 
8 | FC(F)c1cn2c(-c3cccc(N[C@H]4CNCC[C@@H]4F)n3)cnc2cn1 [Compound 25, 6-(6-(difluoromethyl)imidazo[1,2-a]pyrazin-3-yl)-N-((3S,4S)-4-fluoropiperidin-3-yl)pyridin-2-amine] | −834.6 | 3.6 nM | Synergistic
9 | CC(C)(O)c1cn2c(-c3cccc(N[C@@H]4CCCNC4)n3)cnc2cn1 [Compound 30, (R)-2-(3-(6-(piperidin-3-ylamino)pyridin-2-yl)imidazo[1,2-a]pyrazin-6-yl)propan-2-ol] |  | 22 nM | 
10 | CC(C)(O)c1cn2c(-c3cccc(N[C@H]4CNCC[C@@H]4F)n3)cnc2cn1 [Compound 31, 2-(3-(6-(((3S,4S)-4-fluoropiperidin-3-yl)amino)pyridin-2-yl)imidazo[1,2-a]pyrazin-6-yl)propan-2-ol] | −150.3956 | 10 nM | 
11 | CC(C)(O)c1cn2c(-c3nc(N[C@H]4CNCC[C@@H]4F)c(F)cc3F)cnc2cn1 [Compound 35, 2-(3-(3,5-difluoro-6-(((3S,4S)-4-fluoropiperidin-3-yl)amino)pyridin-2-yl)imidazo[1,2-a]pyrazin-6-yl)propan-2-ol] | 386.4 |  | Antagonistic
12 | FC(F)(F)COc1cn2c(-c3cccc(N[C@@H]4CCNC4)n3)cnc2cn1 [Compound 38, (R)-N-(pyrrolidin-3-yl)-6-(6-(2,2,2-trifluoroethoxy)imidazo[1,2-a]pyrazin-3-yl)pyridin-2-amine] |  | 7.6 nM | 
13 | F[C@H]1CNC[C@@H]1Nc1cccc(-c2cnc3cnc(C4CC4)cn23)n1 [Compound 50, 6-(6-cyclopropylimidazo[1,2-a]pyrazin-3-yl)-N-((3S,4S)-4-fluoropyrrolidin-3-yl)pyridin-2-amine] | −552 | 1.9 nM | 
14 | F[C@H]1CCNC[C@@H]1Nc1cccc(-c2cnc3cnc(C4CC4)cn23)n1 [Compound 51, 6-(6-cyclopropylimidazo[1,2-a]pyrazin-3-yl)-N-((3S,4S)-4-fluoropiperidin-3-yl)pyridin-2-amine] | −644.5 |  | 
15 | Cn1cc(-c2cn3c(-c4cccc(N[C@H]5CNC[C@@H]5F)n4)cnc3cn2)cn1 [Compound 52, N-((3S,4S)-4-fluoropyrrolidin-3-yl)-6-(6-(1-methyl-1H-pyrazol-4-yl)imidazo[1,2-a]pyrazin-3-yl)pyridin-2-amine] |  | 1.8 nM | 
16 | O=S1(=O)CCCN1c1cn2c(-c3cccc(N[C@H]4CNCC[C@@H]4F)n3)cnc2cn1 [Compound 97, 2-(3-(6-(((3S,4S)-4-fluoropiperidin-3-yl)amino)pyridin-2-yl)imidazo[1,2-a]pyrazin-6-yl)isothiazolidine 1,1-dioxide] | −171.7 |  | 
17 | O=C1NCCN1c1cn2c(-c3cccc(N[C@H]4CNCC[C@@H]4F)n3)cnc2cn1 [Compound 118, 1-(3-(6-(((3S,4S)-4-fluoropiperidin-3-yl)amino)pyridin-2-yl)imidazo[1,2-a]pyrazin-6-yl)imidazolidin-2-one] | −550.9 |  | 
18 | O=C1CCCN1c1cn2c(-c3cccc(N[C@H]4CNCC[C@@H]4F)n3)cnc2cn1 [Compound 119, 1-(3-(6-(((3S,4S)-4-fluoropiperidin-3-yl)amino)pyridin-2-yl)imidazo[1,2-a]pyrazin-6-yl)pyrrolidin-2-one] | −762 |  | 
